In ChEMBL document CHEMBL1136269, “Discovery of a series of (4,5-dihydroimidazol-2-yl)-biphenylamine 5-HT7 agonists” (Bioorg Med Chem Lett, 2003):

Legend:
[1] = biological target: T1, Adrenergic receptor alpha-1 (Rattus norvegicus, UniProt P15823+P23944+P43140); test: Affinity for Alpha-1 adrenergic receptor of rat cortical membranes
T1 sequence (P15823 whole entry): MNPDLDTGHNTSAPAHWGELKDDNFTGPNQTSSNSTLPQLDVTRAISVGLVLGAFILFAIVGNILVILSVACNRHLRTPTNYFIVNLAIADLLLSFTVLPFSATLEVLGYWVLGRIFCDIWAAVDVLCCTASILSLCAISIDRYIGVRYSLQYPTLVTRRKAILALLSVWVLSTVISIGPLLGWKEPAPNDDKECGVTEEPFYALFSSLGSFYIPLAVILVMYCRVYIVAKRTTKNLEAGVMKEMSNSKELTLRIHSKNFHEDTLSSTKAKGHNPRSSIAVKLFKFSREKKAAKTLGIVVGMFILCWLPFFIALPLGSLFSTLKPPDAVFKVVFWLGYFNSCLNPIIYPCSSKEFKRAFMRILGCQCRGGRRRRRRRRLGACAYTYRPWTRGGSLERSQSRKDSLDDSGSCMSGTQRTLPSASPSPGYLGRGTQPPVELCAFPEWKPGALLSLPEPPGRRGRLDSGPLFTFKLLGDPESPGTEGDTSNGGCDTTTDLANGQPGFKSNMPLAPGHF
T1 sequence (P23944 whole entry): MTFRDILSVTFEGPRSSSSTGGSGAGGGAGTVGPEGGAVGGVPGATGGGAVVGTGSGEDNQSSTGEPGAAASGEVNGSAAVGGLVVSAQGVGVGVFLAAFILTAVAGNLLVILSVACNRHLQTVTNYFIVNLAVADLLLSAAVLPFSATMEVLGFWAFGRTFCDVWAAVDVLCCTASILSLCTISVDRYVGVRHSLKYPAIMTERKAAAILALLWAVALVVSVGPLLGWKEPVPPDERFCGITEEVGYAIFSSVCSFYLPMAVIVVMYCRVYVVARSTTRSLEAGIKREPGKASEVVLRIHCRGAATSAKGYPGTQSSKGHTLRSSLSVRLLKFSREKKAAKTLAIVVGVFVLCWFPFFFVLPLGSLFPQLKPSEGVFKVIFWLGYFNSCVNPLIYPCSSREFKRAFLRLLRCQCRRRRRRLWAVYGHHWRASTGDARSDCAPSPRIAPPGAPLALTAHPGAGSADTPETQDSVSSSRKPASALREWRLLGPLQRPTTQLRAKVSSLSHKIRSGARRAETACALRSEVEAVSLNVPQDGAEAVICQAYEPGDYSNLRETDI
T1 sequence (P43140 whole entry): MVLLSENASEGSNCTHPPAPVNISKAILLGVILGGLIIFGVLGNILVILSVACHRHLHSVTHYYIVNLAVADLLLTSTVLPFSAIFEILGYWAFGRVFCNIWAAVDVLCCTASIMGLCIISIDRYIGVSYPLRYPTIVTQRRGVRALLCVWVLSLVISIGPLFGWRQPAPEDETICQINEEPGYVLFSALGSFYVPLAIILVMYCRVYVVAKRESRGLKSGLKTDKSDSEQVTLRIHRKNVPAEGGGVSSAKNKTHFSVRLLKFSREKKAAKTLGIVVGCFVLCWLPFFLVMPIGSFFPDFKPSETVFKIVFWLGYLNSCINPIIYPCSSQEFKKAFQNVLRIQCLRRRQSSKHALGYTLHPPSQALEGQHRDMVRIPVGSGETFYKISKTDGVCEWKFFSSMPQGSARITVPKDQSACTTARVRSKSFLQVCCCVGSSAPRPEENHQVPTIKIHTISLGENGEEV

[2] = biological target: T2, Adrenergic receptor alpha-2 (Rattus norvegicus, UniProt P22086+P19328+P22909); test: Affinity for Alpha-2 adrenergic receptor of rat cortical membranes
T2 sequence (P22086 whole entry): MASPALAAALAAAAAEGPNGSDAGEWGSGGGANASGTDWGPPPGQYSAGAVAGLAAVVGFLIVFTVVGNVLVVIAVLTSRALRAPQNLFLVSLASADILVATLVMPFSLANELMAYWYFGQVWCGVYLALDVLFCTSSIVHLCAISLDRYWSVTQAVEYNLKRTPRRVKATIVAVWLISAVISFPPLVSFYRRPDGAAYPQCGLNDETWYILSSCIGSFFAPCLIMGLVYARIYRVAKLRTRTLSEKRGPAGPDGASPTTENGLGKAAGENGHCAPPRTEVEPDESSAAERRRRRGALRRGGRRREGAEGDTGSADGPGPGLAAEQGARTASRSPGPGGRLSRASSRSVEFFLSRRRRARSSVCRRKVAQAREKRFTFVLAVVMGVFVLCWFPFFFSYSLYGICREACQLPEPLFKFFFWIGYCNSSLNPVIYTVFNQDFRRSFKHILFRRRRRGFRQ
T2 sequence (P19328 whole entry): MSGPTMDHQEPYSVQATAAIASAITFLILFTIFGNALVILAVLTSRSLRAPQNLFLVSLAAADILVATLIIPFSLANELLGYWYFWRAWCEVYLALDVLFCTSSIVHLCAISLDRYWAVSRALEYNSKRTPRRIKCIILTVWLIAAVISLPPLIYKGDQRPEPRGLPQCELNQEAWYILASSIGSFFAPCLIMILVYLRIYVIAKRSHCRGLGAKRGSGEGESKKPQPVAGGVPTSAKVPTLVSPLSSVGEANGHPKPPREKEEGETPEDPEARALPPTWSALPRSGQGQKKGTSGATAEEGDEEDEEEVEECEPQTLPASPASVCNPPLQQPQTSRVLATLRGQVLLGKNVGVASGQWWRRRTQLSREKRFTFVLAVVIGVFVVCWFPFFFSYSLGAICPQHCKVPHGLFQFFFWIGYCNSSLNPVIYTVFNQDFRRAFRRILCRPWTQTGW
T2 sequence (P22909 whole entry): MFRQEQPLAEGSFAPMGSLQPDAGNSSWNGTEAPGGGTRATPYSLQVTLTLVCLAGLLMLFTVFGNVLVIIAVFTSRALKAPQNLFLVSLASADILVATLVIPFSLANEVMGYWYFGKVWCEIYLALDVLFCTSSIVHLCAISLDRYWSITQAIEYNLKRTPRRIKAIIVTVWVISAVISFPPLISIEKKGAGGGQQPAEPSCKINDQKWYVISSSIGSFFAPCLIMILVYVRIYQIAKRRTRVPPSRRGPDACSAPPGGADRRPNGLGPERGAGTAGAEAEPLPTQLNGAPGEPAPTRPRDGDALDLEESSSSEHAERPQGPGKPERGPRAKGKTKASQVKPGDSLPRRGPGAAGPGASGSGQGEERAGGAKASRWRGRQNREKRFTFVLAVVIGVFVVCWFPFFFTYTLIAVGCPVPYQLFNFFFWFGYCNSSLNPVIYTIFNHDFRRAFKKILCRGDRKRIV

[3] = biological target: 5-hydroxytryptamine receptor 7 (Rattus norvegicus, UniProt P32305); test: Inhibition of [3H]-5-CT binding to 5-hydroxytryptamine 7 receptor of rat cortical membranes; type: cell membranes, Membrane
Chain of 5-hydroxytryptamine receptor 7 (P32305 whole entry): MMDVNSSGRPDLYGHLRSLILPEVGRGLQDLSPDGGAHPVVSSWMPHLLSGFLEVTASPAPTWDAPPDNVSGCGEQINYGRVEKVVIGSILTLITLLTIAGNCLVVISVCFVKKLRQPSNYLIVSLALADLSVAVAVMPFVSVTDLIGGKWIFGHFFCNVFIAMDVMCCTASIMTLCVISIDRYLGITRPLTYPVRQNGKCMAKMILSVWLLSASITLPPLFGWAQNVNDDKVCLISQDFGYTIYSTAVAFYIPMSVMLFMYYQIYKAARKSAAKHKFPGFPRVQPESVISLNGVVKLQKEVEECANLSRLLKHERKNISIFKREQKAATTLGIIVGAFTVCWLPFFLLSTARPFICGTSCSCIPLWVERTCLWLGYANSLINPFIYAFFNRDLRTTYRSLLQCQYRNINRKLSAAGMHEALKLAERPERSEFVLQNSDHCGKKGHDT

Log Ki [1] | Log Ki [2] | Ki [3] | Compound
-6.68 | -7.71 | 16.2 nM | Cc1c(NC2=NCCN2)cccc1-c1ccccc1
-6.56 | -7.58 | 28.2 nM | Cc1c(NC2=NCCN2)cccc1-c1cccc(F)c1
-6.78 | -7.75 | 21.4 nM | Cc1cccc(-c2cccc(NC3=NCCN3)c2C)c1
-7.16 | -7.96 | 31.6 nM | Cc1c(NC2=NCCN2)cccc1-c1ccsc1
-7.36 | -8 | 35.5 nM | COc1cccc(-c2cccc(NC3=NCCN3)c2C)c1
-5.92 | -6.96 | 182 nM | Cc1c(NC2=NCCN2)cccc1-c1cccc(C(C)C)c1
-7.05 | -7.49 | 155 nM | CC(=O)c1cccc(-c2cccc(NC3=NCCN3)c2C)c1.Cl
-6.59 | -8.29 | 257 nM | Cc1c(NC2=NCCN2)cccc1-c1cccnc1
-7.04 | -7.66 | 170 nM | Cc1c(NC2=NCCN2)cccc1-c1cccc(C#N)c1.Cl
-6.68 | -7.13 | 40.7 nM | COc1ccc(-c2cccc(NC3=NCCN3)c2C)c(OC)c1
-6.59 | -7.1 | 45.7 nM | Cc1c(NC2=NCCN2)cccc1-c1cccc(C(F)(F)F)c1
-6.99 | -8.21 | 16.6 nM | Cc1c(NC2=NCCN2)cccc1-c1cccs1
-6.58 | -7.59 | 27.5 nM | COc1ccc(-c2cccc(NC3=NCCN3)c2C)cc1
-6.88 | -7.62 | 26.3 nM | Cc1c(NC2=NCCN2)cccc1-c1cccc(Cl)c1
